From patent publication US10285983B2, “3-(1H-pyrrolo[2,3-B]pyridin-2-yl)-1H-pyrazolo[3,4-B] pyridines and therapeutic uses thereof” (Samumed, LLC, priority 2015, dated 2019)

Key:
Type in all cases: cell-based
[1] = system: Wnt activity (Sp5-Luc reporter, SW480 colon carcinoma cells); assay: Wnt activity screening assay, Sp5-Luc reporter gene in SW480 cells; details: Homo sapiens; for EC50: overnight incubation; for inhibition at 10 µM: given for EC50 >10 μM, read-out: percent inhibition at 10 μM
Excerpt: The screening assay for Wnt activity is described as follows. Reporter cell lines can be generated by stably transducing cancer cell lines (e.g., colon cancer) or primary cells (e.g., IEC-6 intestinal cells) with a lentiviral construct that includes a Wnt-responsive promoter driving expression of the firefly luciferase gene.
SW480 colon carcinoma cells were transduced with a lentiviral vector expressing luciferase with a human Sp5 promoter consisting of a sequence of eight TCF/LEF binding sites. SW480 cells stably expressing the Sp5-Luc reporter gene and a hygromycin resistance gene were selected by treatment with 150 μg/mL of hygromycin for 7 days. These stably transduced SW480 cells were expanded in cell culture and used for all further screening activities. Each compound was dissolved in DMSO as a 10 mM stock and used to prepare compound source plates. Serial dilution (1:3, 10-point dose-response curves starting from 10 μM) and compound transfer was performed using the ECHO 550 (Labcyte, Sunnyvale, Calif.) into 384-well white solid bottom assay plates (Greiner Bio-One) with appropriate DMSO backfill for a final DMSO concentration of 0.1%. For Sp5-Luc reporter gene assays, the cells were plated at 4,000 cells/well in 384-well plates with medium containing 1% fetal bovine serum and incubated overnight at 37° C. and 5% CO2. Following incubation, 20 μl of BrightGlo luminescence reagent (Promega) was added to each well of the 384-well assay plates. The plates were placed on an orbital shaker for 2 min and then luminescence was quantified using the Envision (Perkin Elmer) plate reader. Readings were normalized to DMSO only treated cells, and normalized activities were utilized for EC50 calculations using the dose-response log (inhibitor) vs. response—variable slope (four parameters) nonlinear regression feature available in GraphPad Prism 5.0 (or Dotmatics). For EC50 of >10 μM, the percent inhibition at 10 μM is provided.

SW480 colon cancer cells = assay: Cell viability assay (CellTiter-Blue); details: Homo sapiens, 96 h, four days; for inhibition at 10 µM: given for EC50 >10 μM, read-out: percent inhibition at 10 μM
Procedure: Representative compounds were screened using the following assay procedure to assess the effect on cell viability as described below.
Each compound was dissolved in DMSO as a 10 mM stock and used to prepare compound source plates. Serial dilution (1:3, 8-point dose-response curves from 10 μM to 0.0045 μM) and compound transfer was performed using the ECHO 550 (Labcyte, Sunnyvale, Calif.) into 96-well clear bottom, black-walled plates (Corning-Costar).
Approximately 2×10^3 SW480 colon cancer cells were seeded into each well and allowed to incubate in the presence or absence of compound for four days at 37° C./5% CO2. Eight replicates of DMSO-treated cells served as controls and cells treated with compound were performed in duplicate.
After incubation, 20 μL of CellTiter-Blue (Promega) was added to each well allowed to incubate for approximately 3 hours. This reagent was a buffered solution which contains resazurin, metabolically active cells were able to reduce rezarurin (blue) into resorufin (pink) which was highly fluorescent. This measured fluorescence was used as a readout for cell viability.
After incubation, the plates were read at Ex 560 nm Em 590 nm (Cytation 3, BioTek). Dose-response curves were generated and EC50 concentration values were calculated using non-linear regression curve fit in the GraphPad Prism (San Diego, Calif.) or Dotmatics' Studies Software (Bishops Stortford, UK). For EC50 of >10 μM, the percent inhibition at 10 μM is provided.

[2] = system: primary human fibroblasts derived from IPF patients (LL29 cells); assay: Inhibition of fibrotic process, αSMA staining in TGF-β1 treated LL29 fibroblasts; details: Fibroblast, 96 h, TGF-β1 20 ng/mL, 4 days; for EC50: % αSMA positive cells
Excerpt: Representative compounds were screened using primary human fibroblasts (derived from IPF patients) treated with TGF-β1 to determine their ability to inhibit the fibrotic process.
Primary human fibroblasts derived from IPF patients (LL29 cells) [^1Xiaoqiu Liu, et. al., “Fibrotic Lung Fibroblasts Show Blunted Inhibition by cAMP Due to Deficient cAMP Response Element-Binding Protein Phosphorylation”, Journal of Pharmacology and Experimental Therapeutics (2005), 315(2), 678-687; ^2Watts, K. L., et. al., “RhoA signaling modulates cyclin D1 expression in human lung fibroblasts; implications for idiopathic pulmonary fibrosis”, Respiratory Research (2006), 7(1), 88] were obtained from American Type Culture Collection (ATCC) and expanded in F12 medium supplemented with 15% Fetal Bovine Serum and Penicillin/Streptomycin.
Each compound was dissolved in DMSO as a 10 mM stock and used to prepare compound source plates. Serial dilution (1:2, 11-point dose-response curves from […] to […]) and compound transfer was performed using the ECHO 550 (Labcyte, Sunnyvale, Calif.) into 384-well clear bottom assay plates (Greiner Bio-One) with appropriate DMSO backfill for a final DMSO concentration of 0.1%. LL29 cells are plated at 1,500 cells/well in 80 μL/well F12 medium supplemented with 1% Fetal Bovine Serum. One hour after addition of the cells, TGF-β1 (Peprotech; 20 ng/mL) was added to the plates to induce fibrosis (ref. 1 and 2 above). Wells treated with TGF-β1 and containing DMSO were used as controls. Cells were incubated at 37° C. and 5% CO2 for 4 days. Following incubation for 4 days, SYTOX green nucleic acid stain (Life Technologies [Thermo Fisher Scientific]) was added to the wells at a final concentration of 1 μM and incubated at room temperature for 30 min. Cells were then fixed using 4% formaldehyde (Electron Microscopy Sciences), washed 3 times with PBS followed by blocking and permeabilization using 3% Bovine Serum Albumin (BSA; Sigma) and 0.3% Triton X-100 (Sigma) in PBS. Cells were then stained with antibody specific to α-smooth muscle actin (αSMA; Abcam) (ref. 1 and 2 above) in 3% Bovine Serum Albumin (BSA; Sigma) and 0.3% Triton X-100 (Sigma) in PBS, and incubated overnight at 4° C. Cells were then washed 3 times with PBS, followed by incubation with Alexa Flor-647 conjugated secondary antibody (Life Technologies [Thermo Fisher Scientific]) and DAPI at room temperature for 1 hour. Cells were then washed 3 times with PBS and plates were sealed for imaging. αSMA staining was imaged by excitation at 630 nm and emission at 665 nm and quantified using the Compartmental Analysis program on the CellInsight CX5 (Thermo Scientific). Dead or apoptotic cells were excluded from analysis based on positive SYTOX green staining. % of total cells positive for αSMA were counted in each well and normalized to the average of 11 wells treated with TGF-β1 on the same plate using Dotmatics' Studies Software. The normalized averages (fold change over untreated) of 3 replicate wells for each compound concentration were used to create dose-responses curves and EC50 values were calculated using non-linear regression curve fit in the Dotmatics' Studies Software. For EC50 of >10 μM, the percent inhibition at 10 μM is provided.

[3] = system: IL-6 (THP-1 human monocyte cell line); assay: IL-6 inhibition in LPS-stimulated THP-1 cells (HTRF); details: LPS 500 ng/mL, 22 hours, IL6 HTRF
Procedure: Human monocyte cell line (THP-1 cells; Catalog # TIB-202, ATCC, Manassas, Va.) were cultured in Roswell Park Memorial Institute (RPMI) 1640 Medium (Catalog #21870-100, Buffalo, N.Y.) with 1% L-glutamine, 1% HEPES, 1% Sodium Pyruvate, 2% Sodium Bicarbonate supplemented with 100 units/mL penicillin, 50 μg/mL streptomycin, 2-mercaptoethanol (0.05 mM) [basal medium] and 10% fetal bovine serum (Catalog #16140089, Life Technologies, Carlsbad, Calif.) at 37° C. and 5% CO2.
THP-1 cells were cultured in basal media with 1% FBS for 24 hours before the start of the assay. Each compound was dissolved in DMSO as a 10 mM stock and used to prepare compound source plates. Serial dilution (1:3, 10-point dose-response curves starting from […]) and compound transfer was performed using the ECHO 550 (Labcyte, Sunnyvale, Calif.) into 384-well white low volume assay plates (Greiner Bio-One) with appropriate DMSO backfill for a final DMSO concentration of 0.1%. THP-1 cells were plated at 5000 cells/well in the 384-well plates and incubated at 37° C. for 2 h. 500 ng/mL of LPS was added after 2 hours and cells were incubated for another 22 hours at 37° C. Plates were spun in a centrifuge for 1 minute at 10,000 rpm and a mixture of anti-IL6 XL665, and anti-IL6 Cryptate diluted in reconstitution buffer (Cisbio Inc.) was added to each well. Following incubation for 3 hrs at room temperature, Homogeneous Time-Resolved Fluorescence (HTRF) was measured using the Envision (Perkin Elmer) at 665 nm and […]. The ratio of fluorescence at 665 nm to 620 nm was used as a readout for IL6 quantification. All samples were processed in duplicate. Readings were normalized to DMSO treated cells and normalized activities were utilized for EC50 calculations using the dose-response log (inhibitor) vs. response—variable slope (four parameters) nonlinear regression feature available in GraphPad Prism 5.0 (or Dotmatics). For EC50 of >10 μM, the percent inhibition at 10 μM is provided.

| EC50 [1] [µM] | EC50 (SW480 colon cancer cells) [µM] | EC50 [3] [µM] | Structure (SMILES) | inhibition at 10 µM (SW480 colon cancer cells) [%] | EC50 [2] [µM] | inhibition at 10 µM [1] [%] | inhibition at 10 µM ([2]; given for EC50 >10 μM, read-out: percent inhibition at 10 μM) [%] |
| --- | --- | --- | --- | --- | --- | --- | --- |
| > 10 | > 10 | – | CC(C)(C)C(=O)Nc1cncc(-c2cnc3[nH]nc(-c4cc5c(-c6ccc(F)cc6)ccnc5[nH]4)c3c2)c1 [Compound 36, N-(5-(3-(4-(4-Fluorophenyl)-1H-pyrrolo[2,3-b]pyridin-2-yl)-1H-pyrazolo [3,4-b]pyridin-5-yl)pyridin-3-yl)pivalamide] | 11.9 | > 10 | 12.7 | 33.9 |
| > 10 | 5.38 | 3.89 | c1cc(N2CCCCC2)c2cc(-c3n[nH]c4ncc(C5CCNCC5)cc34)[nH]c2n1 [Compound 601, 3-(4-(Piperidin-1-yl)-1H-pyrrolo[2,3-b]pyridin-2-yl)-5-(piperidin-4-yl)-1H-pyrazolo[3,4-b]pyridine] | – | 9.66 | 36.6 | – |
| > 10 | 2.45 | 4.16 | Fc1cccc(-c2ccnc3[nH]c(-c4n[nH]c5ncc(-c6cncc(CNCc7ccccc7)c6)cc45)cc23)c1 [Compound 24, N-Benzyl-1-(5-(3-(4-(3-fluorophenyl)-1H-pyrrolo[2,3-b]pyridin-2-yl)-1H-pyrazolo[3,4-b]pyridin-5-yl)pyridin-3-yl)methanamine] | – | 1.05 | 25.8 | – |

| Structure (SMILES) | EC50 [1] [µM] | EC50 (SW480 colon cancer cells) [µM] | EC50 [3] [µM] | inhibition at 10 µM (SW480 colon cancer cells) [%] | EC50 [2] [µM] | inhibition at 10 µM [1] [%] | inhibition at 10 µM ([2]; given for EC50 >10 μM, read-out: percent inhibition at 10 μM) [%] |
| --- | --- | --- | --- | --- | --- | --- | --- |
| O=C(Nc1cncc(-c2cnc3[nH]nc(-c4cc5c(N6CCCCC6)ccnc5[nH]4)c3c2)c1)C1CC1 [Compound 188, N-(5-(3-(4-(Piperidin-1-yl)-1H-pyrrolo[2,3-b]pyridin-2-yl)-1H-pyrazolo[3,4-b]pyridin-5-yl)pyridin-3-yl)cyclopropanecarboxamide] | 3.31 | > 10 | 0.348 | 40.8 | 1.79 | – | – |
